Test results as given in PubChem BioAssay AID2060626 (Molecular Pharmacology Branch, DTP, NCI, 2025).
Several values for one entry are separate records, joined by “and”; a condition that tells them apart may be missing. Equal values may be shown once.

Tested on: 168753-222-R-J1-PDC complex spheroid viability
Assay: Anticancer human tumor 168753-222-R-J1-PDC patient-derived bladder carcinoma cell line growth inhibition [CLK]
Conditions: for viability, T/C: stronger effect = lower value
Outline: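 Patient-derived tumor cells grown as complex spheroids with HUVEC endothelial cells and mesenchymal stem cells, treated with drug combinations. Concentrations descend in half-log steps from near clinical Cmax, or from 10 microM if Cmax unknown.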
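Note: viability measured after seven days of drug exposure.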
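Throughout, for viability, T/C: luminescence signal used as surrogate for viable cell amount; 100% = DMSO vehicle control wells.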

**Q.** Which IC50 (curve of first compound, second compound 0.0316 µM) does the source give for CCN1CCN(Cc2ccc(Nc3ncc(F)c(-c4cc(F)c5nc(C)n(C(C)C)c5c4)n3)nc2)CC1 + CNC(=O)c1ccc(Nc2nc(OC3CCCC3)c3c(-c4ccc5nc(C)oc5c4)c[nH]c3n2)c(OC)c1 here?
**A.** > 1000 nM

**Q.** What about the IC50 (curve of first compound, second compound 0.1 µM) of the same molecule?
**A.** > 1000 nM

**Q.** What about the IC50 (curve of first compound, second compound 0.316 µM) of the same molecule?
**A.** 85.5 nM

**Q.** And the IC50 (curve of first compound, second compound 1 µM)?
**A.** < 3.16 nM

**Q.** And the IC50 (curve of first compound, second compound 3.16 µM)?
**A.** < 3.16 nM

**Q.** And the IC50 (curve of first compound, second compound 10 µM)?
**A.** < 3.16 nM

**Q.** And the viability, T/C (second compound 0.0316 µM, first compound 0.00316 µM)?
**A.** 103%

**Q.** What about the viability, T/C (second compound 0.0316 µM, first compound 0.01 µM) of the same molecule?
**A.** 104%

**Q.** What about the viability, T/C (second compound 0.0316 µM, first compound 0.0316 µM) of the same molecule?
**A.** 79.3%

**Q.** And the viability, T/C (second compound 0.0316 µM, first compound 0.1 µM)?
**A.** 77%

**Q.** And the viability, T/C (second compound 0.0316 µM, first compound 0.316 µM)?
**A.** 65.5%

**Q.** What about the viability, T/C (second compound 0.0316 µM, first compound 1 µM) of the same molecule?
**A.** 67.1%

**Q.** What about the viability, T/C (second compound 0.1 µM, first compound 0.00316 µM) of the same molecule?
**A.** 92.9%

**Q.** And the viability, T/C (second compound 0.1 µM, first compound 0.01 µM)?
**A.** 88.5%

**Q.** What about the viability, T/C (second compound 0.1 µM, first compound 0.0316 µM) of the same molecule?
**A.** 78.8%

**Q.** What about the viability, T/C (second compound 0.1 µM, first compound 0.1 µM) of the same molecule?
**A.** 70.1%

**Q.** And the viability, T/C (second compound 0.1 µM, first compound 0.316 µM)?
**A.** 70.4%

**Q.** What about the viability, T/C (second compound 0.1 µM, first compound 1 µM) of the same molecule?
**A.** 55.7%

**Q.** And the viability, T/C (second compound 0.316 µM, first compound 0.00316 µM)?
**A.** 83.6%

**Q.** What about the viability, T/C (second compound 0.316 µM, first compound 0.01 µM) of the same molecule?
**A.** 77%

**Q.** And the viability, T/C (second compound 0.316 µM, first compound 0.0316 µM)?
**A.** 67.2%

**Q.** And the viability, T/C (second compound 0.316 µM, first compound 0.1 µM)?
**A.** 46.3%

**Q.** What about the viability, T/C (second compound 0.316 µM, first compound 0.316 µM) of the same molecule?
**A.** 43%

**Q.** What about the viability, T/C (second compound 0.316 µM, first compound 1 µM) of the same molecule?
**A.** 44.6%

**Q.** And the viability, T/C (second compound 1 µM, first compound 0.00316 µM)?
**A.** 25.2%

**Q.** What about the viability, T/C (second compound 1 µM, first compound 0.01 µM) of the same molecule?
**A.** 46.9%

**Q.** And the viability, T/C (second compound 1 µM, first compound 0.0316 µM)?
**A.** 25.2%

**Q.** What about the viability, T/C (second compound 1 µM, first compound 0.1 µM) of the same molecule?
**A.** 22.5%

**Q.** And the viability, T/C (second compound 1 µM, first compound 0.316 µM)?
**A.** 19.4%

**Q.** And the viability, T/C (second compound 1 µM, first compound 1 µM)?
**A.** 26.4%

**Q.** What about the viability, T/C (second compound 3.16 µM, first compound 0.00316 µM) of the same molecule?
**A.** 26.3%

**Q.** What about the viability, T/C (second compound 3.16 µM, first compound 0.01 µM) of the same molecule?
**A.** 20.9%

**Q.** What about the viability, T/C (second compound 3.16 µM, first compound 0.0316 µM) of the same molecule?
**A.** 18.8%

**Q.** And the viability, T/C (second compound 3.16 µM, first compound 0.1 µM)?
**A.** 15.4%

**Q.** And the viability, T/C (second compound 3.16 µM, first compound 0.316 µM)?
**A.** 17%

**Q.** What about the viability, T/C (second compound 3.16 µM, first compound 1 µM) of the same molecule?
**A.** 17.7%

**Q.** And the viability, T/C (second compound 10 µM, first compound 0.00316 µM)?
**A.** 17.4%

**Q.** What about the viability, T/C (second compound 10 µM, first compound 0.01 µM) of the same molecule?
**A.** 19.6%

**Q.** What about the viability, T/C (second compound 10 µM, first compound 0.0316 µM) of the same molecule?
**A.** 17.4%

**Q.** What about the viability, T/C (second compound 10 µM, first compound 0.1 µM) of the same molecule?
**A.** 14.6%

**Q.** What about the viability, T/C (second compound 10 µM, first compound 0.316 µM) of the same molecule?
**A.** 15.1%

**Q.** And the viability, T/C (second compound 10 µM, first compound 1 µM)?
**A.** 18.2%

**Q.** For COc1c(OCCCN2CCOCC2)ccc2c3n(c(=NC(=O)c4cnc(N)nc4)nc12)CCN3, which viability, T/C (compound 0.00316 µM) is on record?
**A.** 59.7% and 74.2%

**Q.** And the viability, T/C (compound 0.01 µM)?
**A.** 44.1% and 48.3%

**Q.** What about the viability, T/C (compound 0.0316 µM) of the same molecule?
**A.** 10.2% and 17%

**Q.** And the viability, T/C (compound 0.1 µM)?
**A.** 13.6% and 15.3%

**Q.** What about the viability, T/C (compound 0.316 µM) of the same molecule?
**A.** 7.59% and 8.3%

**Q.** What about the viability, T/C (compound 1 µM) of the same molecule?
**A.** 2.26% and 3.63%

**Q.** And the IC50 (curve of compound)?
**A.** 6.47 nM and 8.95 nM
